Series [1] relates to interior spruce somatic embryos. Format: in vivo, Picea glauca (Moench) Voss x P. engelmannii Parry ex Engelm. The settings on record: for % with hyperhydricity: in vivo. An excerpt: The second study assessed the effects adding various osmotica to nutripriming solutions on subsequent germination and development performance. Mature somatic embryos of interior spruce (Picea glauca (Moench) Voss x P. engelmannii Parry ex Engelm.) genotype 23-2672 were desiccated with the HRHT treatment, and then divided into 10 groups of 160 somatic embryos per group. One group was not primed and served as the HRHT control treatment for this study. […] The nutripriming solutions and embryos were placed into 250-ml Kimax® baffled flasks. The nutripriming duration was 72 hrs at temperatures ranging between 20-23° C., and a 24-hr photoperiod of 30 μmol m^−2s^−1 photosynthetic photon flux.
At the completion of the nutripriming step, the nutriprimed embryos from each treatment were divided into 8 groups of 20 embryos and sown by hand onto vermiculite media in Sigma polycarbonate boxes. The liquid media in these germination boxes were either 3% w/v sucrose m24GMD or m24GMD without sucrose. The experiment design was a random complete block design for each media type. Each nutripriming treatment had 4 replicates of 20 embryos in each germination media type. The germination boxes were placed in a germination room and grown for two weeks under 50-70 μmol m^−2s^−1 photosynthetic photon flux of 16-hour photoperiod at an air temperature of 23° C. The germinants were then harvested and assessed for germination rates, hyperhydricity rates, shoot and root length. Germination was defined as germinants having a root longer than 2 mm, and elongated hypercotyl. Hyperhydricity was defined by the thickening of hypercotyl and watery appearance of the germinants, whether germinated or not germinated.

Series [2] has the same test system. Kind of series: Ascorbic acid in nutripriming solution and germination media: germination and growth of interior spruce genotype 4-2809 somatic embryos. Format: in vivo, Picea glauca (Moench) Voss x P. engelmannii Parry ex Engelm. As to the method: Mature somatic embryos of interior spruce (Picea glauca (Moench) Voss x P. engelmannii Parry ex […].) genotype 4-2809 were desiccated with the HRHT treatment, and then nutriprimed in 3% w/v sucrose m24GMD solutions for 3 days as previously described. The nutripriming solutions were formulated with one of the following three ascorbic acid treatments; 0, 10 uM, 100 uM. The nutriprimed somatic embryos were then sown into germination boxes containing 150 ml vermiculite plus 120 ml of 3% w/v sucrose m24GMD liquid medium. […] Nutriprimed embryos from each ascorbic acid nutripriming treatment were then sown into triplicate boxes of each ascorbic acid-amended germination medium. After sowing, the germination boxes were sealed twice with ParafilmTM. Embryos were germinated and grown for two weeks under 50-70 μmol m^-2s^-1 photosynthetic photon flux of 16-hour photoperiod at an air temperature of 22° C. Then, the germinants were harvested, and measured.

Setting [3] is: germination media m24GMD (without sucrose), osmoticant levels as E220.
Setting [4] is: germination media m24GMD plus 3% sucrose, osmoticant in m24GMD priming solution (w/v): 1% betaine, 1.65% fructose, glucose, mannitol, sorbitol, 3% lactose, maltose, sucrose, 10% PEG 4000, 72 hrs.
The mark [5] stands for this setting: germination media m24GMD plus 3% sucrose, osmoticant levels as E220.
The mark [6] stands for this setting: AA 0 μM in germination media, 10 μM in priming solution.
Where [7] appears, read: AA 0 μM in germination media, 100 μM in priming solution.
Where [8] appears, read: AA 1 μM in germination media, 0 μM in priming solution.
Where [9] appears, read: AA 1 μM in germination media, 10 μM in priming solution.
Where [10] appears, read: AA 1 μM in germination media, 100 μM in priming solution.
The mark [11] stands for this setting: AA 10 μM in germination media, 0 μM in priming solution.
Setting [12] is: AA 10 μM in germination media, 10 μM in priming solution.
[13] abbreviates: AA 10 μM in germination media, 100 μM in priming solution.
Where [14] appears, read: AA 100 μM in germination media, 0 μM in priming solution.
Setting [15] is: AA 100 μM in germination media, 10 μM in priming solution.
[16] abbreviates: AA 100 μM in germination media, 100 μM in priming solution.
[17] abbreviates: AA 1000 μM in germination media, 0 μM in priming solution.
[18] abbreviates: AA 1000 μM in germination media, 10 μM in priming solution.
The mark [19] stands for this setting: AA 1000 μM in germination media, 100 μM in priming solution.

Like-named read-outs stand apart in the source and are kept apart here.

Consider `OC[C@H]1O[C@H](O[C@H]2[C@H](O)[C@@H](O)[C@H](O)O[C@@H]2CO)[C@H](O)[C@@H](O)[C@@H]1O` [maltose], for which the Germination % in series [1] (setting [3]) came out at 0%; in series [1] (setting [4]), 98.8%. Further, the Root length was 0.8 ± 0.1 mm in series [1] (setting [3]) and 11.5 ± 0.8 mm in series [1] (setting [5]). Also, the Shoot length worked out at 11.2 ± 0.3 mm in series [1] (setting [3]) and 14.2 ± 0.3 mm in series [1] (setting [5]). The “% with hyperhydricity” value in series [1] worked out at 100%.

For the compound `O=C(CO)[C@@H](O)[C@H](O)[C@H](O)CO` [fructose], in series [1] (setting [3]), the Germination % was 87.5 ± 7.8%, the Root length is recorded as 2.1 ± 0.1 mm and the Shoot length is given as 10.0 ± 0.3 mm. The Germination % in series [1] (setting [4]) came out at 100%. In addition, in series [1] (setting [5]), the Root length came to 12.2 ± 0.8 mm and the Shoot length is 13.5 ± 0.3 mm. Besides, in series [1], the “% with hyperhydricity” value turned out to be 86.3 ± 9.4%.

`OC[C@@H](O)[C@@H](O)[C@H](O)[C@H](O)CO` [mannitol]: the Germination % in series [1] (setting [3]) is given as 24.6 ± 12.7%; in series [1] (setting [4]), 100%. For the same compound, the values for the Root length in series [1] (setting [3]) and in series [1] (setting [5]) were 0.3 ± 0.1 mm and 12.0 ± 0.5 mm, respectively. In addition, the results for the Shoot length in series [1] (setting [3]) and in series [1] (setting [5]) were 10.0 ± 0.3 mm and 13.6 ± 0.3 mm, respectively. Also, in series [1], the “% with hyperhydricity” value is 93.5 ± 5.0%.

For the compound `OC[C@H]1O[C@@H](O[C@H]2[C@H](O)[C@@H](O)C(O)O[C@@H]2CO)[C@H](O)[C@@H](O)[C@H]1O` (some centres unmarked) [lactose], the Germination % in series [1] (setting [3]) was determined as 27.6 ± 24.3%; in series [1] (setting [4]), 100%. Besides, the values for the Root length in series [1] (setting [3]) and in series [1] (setting [5]) were 0.3 ± 0.1 mm and 12.4 ± 0.8 mm, respectively. Also, the Shoot length is recorded as 11.5 ± 0.2 mm in series [1] (setting [3]) and 15.5 ± 0.3 mm in series [1] (setting [5]). Moreover, in series [1], the “% with hyperhydricity” value was 100%.

On to “polyethylene glycol (PEG) 4000 [PEG 4000]”, for which, in series [1], the “% with hyperhydricity” value is 97.5 ± 4.3%.

As to `C[N+](C)(C)CC(=O)O` [betaine], the Germination % in series [1] (setting [3]) is listed as 45.0 ± 26.3%; in series [1] (setting [4]), 100%. For the same compound, the results for the Root length in series [1] (setting [3]) and in series [1] (setting [5]) were 0.4 ± 0.2 mm and 12.2 ± 0.8 mm, respectively. In addition, the Shoot length in series [1] (setting [3]) is 11.2 ± 0.3 mm; in series [1] (setting [5]) it was 14.2 ± 0.3 mm. Further, the “% with hyperhydricity” value in series [1] was determined as 76.3 ± 19.1%.

`O=C1O[C@H]([C@@H](O)CO)C(O)=C1O` [AA, Ascorbic acid]: the Germination % is reported as 100.0 ± 0.0% in series [2] (setting [6]); 100.0 ± 0.0% in series [2] (setting [7]); 96.7 ± 3.3% in series [2] (setting [8]); 100.0 ± 0.0% in series [2] (setting [9]); 100.0 ± 0.0% in series [2] (setting [10]); 97.5 ± 2.5% in series [2] (setting [11]). In addition, the Germination % in series [2] (setting [12]) came out at 96.7 ± 3.3%; in series [2] (setting [13]), 100.0 ± 0.0%; in series [2] (setting [14]), 93.3 ± 3.3%; in series [2] (setting [15]), 100.0 ± 0.0%; in series [2] (setting [16]), 100.0 ± 0.0%; in series [2] (setting [17]), 100.0 ± 0.0%. The Germination % in series [2] (setting [18]) and in series [2] (setting [19]) was 100.0 ± 0.0% in each case. For the same compound, the Root length in series [2] (setting [6]) turned out to be 2.59 ± 0.26 cm; in series [2] (setting [7]), 3.56 ± 0.37 cm; in series [2] (setting [8]), 1.90 ± 0.23 cm; in series [2] (setting [9]), 2.07 ± 0.22 cm; in series [2] (setting [11]) it was 2.46 ± 0.30 cm; in series [2] (setting [12]), 2.82 ± 0.36 cm. The Root length in series [2] (setting [13]) is given as 3.24 ± 0.32 cm; in series [2] (setting [14]) it was 2.50 ± 0.33 cm; in series [2] (setting [15]), 3.18 ± 0.42 cm; in series [2] (setting [16]), 3.61 ± 0.39 cm; in series [2] (setting [17]), 2.11 ± 0.25 cm; in series [2] (setting [18]) it was 2.55 ± 0.20 cm. For the same compound, the Root length in series [2] (setting [19]) is on record as 2.19 ± 0.26 cm. The Rooting % in series [2] (setting [6]) is 86.7 ± 3.3%; in series [2] (setting [7]) it was 96.7 ± 3.3%; in series [2] (setting [8]), 85.8 ± 3.0%; in series [2] (setting [9]) it was 86.7 ± 8.8%; in series [2] (setting [10]) it was 90.0 ± 0.0%; in series [2] (setting [11]), 87.5 ± 6.3%. For the same compound, the Rooting % is reported as 86.7 ± 3.3% in series [2] (setting [12]); 96.7 ± 3.3% in series [2] (setting [13]); 63.3 ± 8.8% in series [2] (setting [14]); 78.2% in series [2] (setting [15]); 73.0% in series [2] (setting [16]); 90.0 ± 0.0% in series [2] (setting [17]). In addition, the Rooting % is reported as 95.0 ± 5.0% in series [2] (setting [18]) and 90.0 ± 5.8% in series [2] (setting [19]). In addition, the Shoot length in series [2] (setting [6]) is recorded as 1.86 ± 0.10 cm; in series [2] (setting [7]), 2.07 ± 0.11 cm; in series [2] (setting [8]), 1.68 ± 0.10 cm; in series [2] (setting [9]) it was 1.83 ± 0.11 cm; in series [2] (setting [10]) it was 1.79 ± 0.09 cm; in series [2] (setting [11]), 1.84 ± 0.09 cm. The Shoot length in series [2] (setting [12]) worked out at 1.97 ± 0.19 cm; in series [2] (setting [13]), 2.33 ± 0.11 cm; in series [2] (setting [14]), 1.81 ± 0.09 cm; in series [2] (setting [15]) it was 2.02 ± 0.11 cm; in series [2] (setting [16]), 2.12 ± 0.11 cm; in series [2] (setting [17]), 1.79 ± 0.14 cm. Further, the Shoot length was determined as 2.00 ± 0.09 cm in series [2] (setting [18]) and 1.75 ± 0.15 cm in series [2] (setting [19]).

As for `OC[C@@H](O)[C@@H](O)[C@H](O)[C@@H](O)CO` [sorbitol], in series [1] (setting [3]), the Germination % was found to be 5.0 ± 5.0%, the Root length is reported as 0.4 ± 0.1 mm and the Shoot length is on record as 10.7 ± 0.3 mm. The Germination % in series [1] (setting [4]) is listed as 100%. Besides, in series [1] (setting [5]), the Root length is on record as 15.5 ± 1.0 mm and the Shoot length is 14.5 ± 0.4 mm. The “% with hyperhydricity” value in series [1] is 92.6 ± 6.0%.

Values taken from US6689609B1, “Enhancing germination of plant somatic embryos by priming” (Cellfor Inc., priority 1999, dated 2004).
